Source: patent US20180179177A1, “N-ACYLIMINO HETEROCYCLIC COMPOUNDS FOR CONTROLLING INVERTEBRATE PESTS” (BASF SE, priority 2014, published 2018)

What was measured:
Assay type in all cases: in vivo
[1] = system: green peach aphid (Myzus persicae); test: Green peach aphid control, systemic, artificial diet under membrane; conditions: 72 h, aphid mortality after 3 days, read-out: mortality in comparison with untreated controls
Excerpt: B.4 Green Peach Aphid (Myzus persicae)
For evaluating control of green peach aphid (Myzuspersicae) through systemic means, the test unit consists of 96-well-microtiter plates containing liquid artificial diet under an artificial membrane.
The compounds are formulated using a solution containing 75% v/v water and 25% v/v DMSO. Different concentrations of formulated compounds are pipetted into the aphid diet, using a custom built pipetter, at two replications.
After application, 5-8 adult aphids are placed on the artificial membrane inside the microtiter plate wells. The aphids are then allowed to suck on the treated aphid diet and incubated at about 23±10C and about 50±5% relative humidity for 3 days. Aphid mortality and fecundity is then visually assessed.

[2] = system: Cotton aphid (Aphis gossypih); test: Cotton aphid test, sprayed potted plants; conditions: after 72 hours, read-out: mortality in comparison with untreated controls
Protocol: B.11 Cotton Aphid (Aphis gossypih)
(§1) The active compound is dissolved at the desired concentration in a mixture of 1:1 (vol:vol) distilled water:acetone. Surfactant (Alkamuls® EL 620) is added at a rate of 0.1% (vol/vol). The test solution is prepared at the day of use.
(§2) Potted cowpea plants were colonized with approximately 50-100 aphids of various stages by manually transferring a leaf tissue cut from infested plant 24 hours before application. Plants were sprayed after the pest population has been recorded. Treated plants are maintained on light carts at about 28° C. Percent mortality was assessed after 72 hours.

[3] = system: Orchid thrips (Dichromothrips corbetti); test: Orchid thrips floral-immersion test; conditions: 72 hours after treatment, read-out: mortality in comparison with untreated controls
Protocol: B.5 Orchid Thrips (Dichromothrips Corbetti)
Dichromothrips corbetti adults used for bioassay are obtained from a colony maintained continuously under laboratory conditions. For testing purposes, the test compound is diluted in a 1:1 mixture of acetone:water (vol:vol), plus 0.01% vol/vol Alkamuls® EL 620 surfactant.
Thrips potency of each compound is evaluated by using a floral-immersion technique. Plastic petri dishes are used as test arenas. All petals of individual, intact orchid flowers are dipped into treatment solution and allowed to dry. Treated flowers are placed into individual petri dishes along with about 20 adult thrips. The petri dishes are then covered with lids. All test arenas are held under continuous light and a temperature of about 28° C. for duration of the assay. After 3 days, the numbers of live thrips are counted on each flower, and along inner walls of each petri dish. The percent mortality is recorded 72 hours after treatment.

[4] = system: Mediterranean fruitfly (Ceratitis capitata); test: Mediterranean fruitfly control, insect diet in microtiter plates; conditions: 120 h, egg and larval mortality after 5 days, read-out: mortality in comparison with untreated controls
Protocol: B.2 Mediterranean Fruitfly (Ceratitis capitata)
For evaluating control of Mediterranean fruitfly (Ceratitis capitata) the test unit consisted of microtiter plates containing an insect diet and 50-80 C. capitata eggs. The compounds were formulated using a solution containing 75% v/v water and 25% v/v DMSO. Different concentrations of formulated compounds were sprayed onto the insect diet at 5 μl, using a custom built micro atomizer, at two replications.
After application, microtiter plates were incubated at about 28±1° C. and about 80±5% relative humidity for 5 days. Egg and larval mortality was then visually assessed.

[5] = system: Rice green leafhopper (Nephotettix virescens); test: Rice green leafhopper test, sprayed rice seedlings; conditions: after 72 hours, read-out: mortality in comparison with untreated controls
Protocol: B.7 Rice Green Leafhopper (Nephotettix virescens)
(§3) Rice seedlings are cleaned and washed 24 hours before spraying. The active compounds are formulated in 50:50 acetone:water (vol:vol), and 0.1% vol/vol surfactant (EL 620) is added. Potted rice seedlings are sprayed with 5 ml test solution, air dried, placed in cages and inoculated with 10 adults. Treated rice plants are kept at about 28-29° C. and relative humidity of about 50-60%. Percent mortality is recorded after 72 hours.

[6] = system: vetch aphid (Megoura viciae); test: Vetch aphid control, contact or systemic, broad bean leaf disks; conditions: foliar, 120 h, aphid mortality after 5 days, read-out: mortality in comparison with untreated controls
Protocol: B.3 Vetch Aphid (Megoura viciae)
For evaluating control of vetch aphid (Megoura viciae) through contact or systemic means the test unit consisted of 24-well-microtiter plates containing broad bean leaf disks.
The compounds were formulated using a solution containing 75% v/v water and 25% v/v DMSO. Different concentrations of formulated compounds were sprayed onto the leaf disks at 2.5 μl, using a custom built micro atomizer, at two replications.
After application, the leaf disks were air-dried and 5-8 adult aphids were placed on the leaf disks inside the microtiter plate wells. The aphids were then allowed to suck on the treated leaf disks and were incubated at about 23±10C and about 50±5% relative humidity for 5 days. Aphid mortality and fecundity was then visually assessed.

[7] = system: Silverleaf whitefly (Bemisia argentifolii); test: Silverleaf whitefly test, sprayed cotton plants; conditions: 72 h, 3 days after treatment, adults, read-out: mortality in comparison with untreated controls
Excerpt: B.12 Silverleaf Whitefly (Bemisia argentifolii)
(§4) The active compounds are formulated in cyclohexanone as a 10,000 ppm solution supplied in tubes. The tubes are inserted into an automated electrostatic sprayer equipped with an atomizing nozzle and they serve as stock solutions for which lower dilutions are made in 50% acetone:50% water (v/v). A nonionic surfactant (Kinetic®) is included in the solution at a volume of 0.01% (v/v).
Cotton plants at the cotyledon stage (one plant per pot) are sprayed by an automated electrostatic plant sprayer equipped with an atomizing spray nozzle. The plants are dried in the sprayer fume hood and then removed from the sprayer. Each pot is placed into a plastic cup and about 10 to 12 whitefly adults (approximately 3-5 days old) are introduced. The insects are collected using an aspirator and a nontoxic Tygon® tubing connected to a barrier pipette tip. The tip, containing the collected insects, is then gently inserted into the soil containing the treated plant, allowing insects to crawl out of the tip to reach the foliage for feeding. Cups are covered with a reusable screened lid. […] Mortality is assessed 3 days after treatment, compared to untreated control plants.

[8] = system: Cowpea aphid (Aphis craccivora); test: Cowpea aphid test, sprayed potted cowpea plants; conditions: after 72 hours, read-out: mortality in comparison with untreated controls
Protocol: B.6 Cowpea Aphid (Aphis craccivora)
as §1
as §2, with “are” for “were”, “is” for “was”

[9] = system: Southern armyworm (Spodoptera eridania); test: Southern armyworm test, sprayed lima bean plants; conditions: 96 h, 4 days after treatment, larvae, read-out: mortality in comparison with untreated controls
Protocol: B.13 Southern Armyworm (Spodoptera eridania)
as §4, with “were” for “are”, “served” for “serve”, “was” for “is”
Lima bean plants (variety Sieva) were grown 2 plants to a pot and selected for treatment at the 1st true leaf stage. Test solutions were sprayed onto the foliage by an automated electrostatic plant sprayer equipped with an atomizing spray nozzle. The plants were dried in the sprayer fume hood and then removed from the sprayer. Each pot was placed into perforated plastic bags with a zip closure. About 10 to 11 armyworm larvae were placed into the bag and the bags zipped closed. Test plants were maintained in a growth room at about 250C and about 20-40% relative humidity for 4 days, avoiding direct exposure to fluorescent light (24 hour photoperiod) to prevent trapping of heat inside the bags. Mortality and reduced feeding were assessed 4 days after treatment, compared to untreated control plants.

[10] = system: boll weevil (Anthonomus grandis); test: Boll weevil control, insect diet in 96-well microtiter plates; conditions: 120 h, egg and larval mortality after 5 days, read-out: mortality in comparison with untreated controls
Protocol: B.1 Boll Weevil (Anthonomus grandis)
For evaluating control of boll weevil (Anthonomus grandis) the test unit consisted of 96-well-microtiter plates containing an insect diet and 5-10 A. grandis eggs.
The compounds were formulated using a solution containing 75% v/v water and 25% v/v DMSO. Different concentrations of formulated compounds were sprayed onto the insect diet at 5 μl, using a custom built micro atomizer, at two replications.
After application, microtiter plates were incubated at about 25±10C and about 75±5% relative humidity for 5 days. Egg and larval mortality was then visually assessed.

[11] = system: Green soldier stink bug (Nezara viridula); test: Green soldier stink bug test, sprayed soybean pods; conditions: 120 h, after 5 days, 3rd instar, read-out: mortality in comparison with untreated controls
Protocol: B.8 Green Soldier Stink Bug (Nezara viridula)
The active compound is dissolved at the desired concentration in a mixture of 1:1 (vol:vol) distilled water:aceteone. Surfactant (Kinetic HV) is added at a rate of 0.01% (vol/vol). The test solution is prepared at the day of use.
Soybean pods were placed in microwavable plastic cups lined with moist filter paper and inoculated with ten 3rd instar N. viridula. Using a hand atomizer, approximately 2 ml solution is sprayed into each cup. Treated cups were kept at about 28-29° C. and relative humidity of about 50-60%. Percent mortality was recorded after 5 days.

[12] = system: Rice brown plant hopper (Nilaparvata lugens); test: Rice brown plant hopper test, sprayed rice seedlings; conditions: after 72 hours, read-out: mortality in comparison with untreated controls
Protocol: B.9 Rice Brown Plant Hopper (Nilaparvata lugens)
as §3, with “compounds is” for “compounds are”, “acetone:water (vol:vol)” for “acetone:water (vol:vol),”, “620) was” for “620) is”

[13] = system: Diamond back moth (Plutella xylostella); test: Diamond back moth test, dipped cabbage leaves; conditions: 72 hours after treatment, 3rd instar larvae, read-out: mortality in comparison with untreated controls
Protocol: B.10 Diamond Back Moth (Plutella xylostella)
The active compound is dissolved at the desired concentration in a mixture of 1:1 (vol:vol) distilled water:aceteone. Surfactant (Alkamuls® EL 620) is added at a rate of 0.1% (vol/vol). The test solution is prepared at the day of use.
Leaves of cabbage were dipped in test solution and air-dried. Treated leaves were placed in petri dish eslined with moist filter paper and inoculated with ten 3rd instar larvae. Mortality was recorded 72 hours after treatment. Feeding damages were also recorded using a scale of 0-100%.

CC(C)/C=C(/C(=O)/N=c1\ccccn1Cc1ccc(Cl)nc1)[N+](=O)[O-] [Compound E3.1]
mortality at 2500 ppm [1]: ≥ 75% | mortality at 500 ppm [2]: > 75% | mortality at 500 ppm [3]: ≥ 75% | mortality at 2500 ppm [4]: ≥ 75% | mortality at 500 ppm [5]: ≥ 75% | mortality at 2500 ppm [6]: ≥ 75% | mortality at 500 ppm [7]: ≥ 75% | mortality at 500 ppm [8]: ≥ 75%

O=C(C[N+](=O)[O-])/N=c1\ccccn1Cc1ccc(Cl)nc1 [Compound E1.4]
mortality at 2500 ppm [1]: ≥ 75% | mortality at 500 ppm [9]: ≥ 75% | mortality at 2500 ppm [10]: ≥ 75% | mortality at 500 ppm [2]: > 75% | mortality at 500 ppm [11]: > 75% | mortality at 500 ppm [12]: ≥ 75% | mortality at 500 ppm [3]: ≥ 75% | mortality at 2500 ppm [4]: ≥ 75% | mortality at 500 ppm [5]: ≥ 75% | mortality at 2500 ppm [6]: ≥ 75% | mortality at 500 ppm [7]: ≥ 75% | mortality at 500 ppm [8]: ≥ 75% | mortality at 500 ppm [13]: > 75%

O=C(/N=c1\ccccn1Cc1ccc(Cl)nc1)C1([N+](=O)[O-])CC1c1ccccc1 (stereo not drawn) [Compound E2.3]
mortality at 2500 ppm [1]: ≥ 75% | mortality at 2500 ppm [6]: ≥ 75% | mortality at 500 ppm [8]: ≥ 75%
